Laboratory results taken from US4552965A, “2α, 3β, 4aβ, 8aα-Decahydro-3-(4-phenyl-1-piperidinyl)-2-naphthalenol” (University of California, priority 1984, dated 1985).

System: Torpedo californica electric organ synpatic vesicles
Assay: Inhibition of ATP-dependent uptake of radioactive ACh by purified Torpedo electric organ synaptic vesicles in vitro
Format: biochemical
Conditions: for IC50: purified Torpedo vesicles, room temperature, approximately 30 minutes, neutral pH, approximately 5 mM ATP, 50 μM radioactive ACh, read-out: IC50 (inhibition of vesicular ACh uptake)
Method: For example, purified Torpedo californica electric organ synpatic vesicles uptake ACh in vitro in the presence of ATP. Such vesicles are incubated at room temperature for approximately 30 minutes in isosmotic buffer at neutral PH, the buffer containing approximately 5 mM ATP and 50 μM radioactive ACh, and the radioactivity accumulated by the washed vesicles is then measured by liquid scintillation spectroscopy. By varying the concentration of the compound to be tested to determine its inhibitory effect on ACh uptake, a dose response curve can be deduced including the IC50.

SMILES | IC50 [µM] | concentration needed relative to DPPN for comparable blockade of vesicular uptake of ACh (relative to DPPN) | times more effective than AH 5183 in preventing ACh uptake by the vesicles (relative to AH 5183)
OC1CCCCC1N1CCC(c2ccccc2)CC1 (stereo not shown) [AH 5183, 2-(4-Phenylpiperidino)-cyclohexanol] | 40 | at least four | 
O[C@@H]1C[C@H]2CCCC[C@@H]2C[C@H]1N1CCC(c2ccccc2)CC1 (relative stereo) [DPPN, (2α, 3β, 4aβ, 8aα)-decahydro-3-(4-phenyl-1-piperidinyl)-2-naphthalenol] | 10 |  | approximately four
